Data: patent publication US9790215B2 (FLATLEY DISCOVERY LAB, LLC, priority 2013, dated 2017)

Molecular target: T1, human ΔF508-CFTR (Homo sapiens, UniProt P13569, DEL508-508)
T1 construct: expressed in transfected cells
Experiment: CFTR-YFP High Throughput Assay (YFP halide flux in FRT cells)
Format: cell-based
Settings: FRT cells expressing human ΔF508-CFTR and YFP; forskolin stimulated
Procedure: Assays for Detecting and Measuring the Effect of Compounds on dF508-CFTR Channels CFRT-YFP High Throughput Assay:
The following protocol is designed to selectively screen small molecule compounds for F508del CFTR corrector activities in the HTS YFP flux assay. In this protocol, the cells are incubated with testing compounds for 24 hours, washed with PBS, stimulated with forskolin and a standard potentiator, and read on a 384-well HTS plate reader, such as the Hamamatsu FDDD-6000.
(§1) YFP fluorescence intensity is acquired at high speed before and after iodide buffer is injected to the assay cells. Iodide enters the cells via active CFTR channels in the plasma membrane, and quenches the YFP fluorescence. The rate of fluorescence quenching is proportionally related to the total CFTR activities in the cell membrane. dF508-CFTR corrector accelerates YFP quenching by increasing the number of CFTR molecules in the testing cell plasma membrane.
This method was initially developed for bench top plate readers (Galietta et al., 2001), and was adapted to the HTS format (Sui et al. Assay Drug Dev. Technol. 2010).
Fisher Rat Thyroid (FRT) cells stably expressing both human AF508-CFTR and a halide-sensitive yellow fluorescent protein (YFP—H148Q/1152L 25, 22) (Galietta et al., Am. J. Physiol Cell Physiol 281(5), C1734, 2001) were cultured on plastic surface in Coon's modified Ham's F12 medium supplemented with FBS 10%, L-glutamine 2 mM, penicillin 100 U/mL, and streptomycin 100 μg/mL. G418 (0.75-1.0 mg/mL) and zeocin (3.2 ug/mL) were used for selection of FRT cells expressing ΔF508-CFTR and YFP. For primary screening, FRT cells were plated into 384-well black wall, transparent bottom microtiter plates (Costar; Corning Inc.) at a cell density of 20,000-40,000 per well. Test compound was applied to the cells at varying concentrations ranging from […] in either a 2-fold or 3-fold dilution series. Cells were incubated in a cell culture incubator at 37° C. with 5% CO2 for 24-26 h. Assay plates were washed with DPBS media (Thermo, cat# SH30028.02) to remove unbound cells and compound. Stimulation media (25 μL) containing 20 μM Forskolin & 30 μM P3 [6-(Ethyl-phenyl-sulfonyl)-4-oxo-1,4-dihydro-quinoline-3-carboxylic acid 2-methoxy-benzylamide] in Hams F-12 coon's modified media was added to the plate wells and incubated at room temperature for 60-120 min. 25 μL of HEPES-PBS-I buffer (10 mM HEPES, 1 mM MgCl2, 3 mM KCl, 1 mM CaCl2, 150 mM NaI) was then added and fluorescence quench curves (Excitation 500 nm/Emission 540 nm; exposure 136 ms) were immediately recorded on an FDSS-6000 plate reader (Hamamatsu). Quench rates were derived from least squares fitting of the data as described by Sui et al., (2010).
The following protocol is designed to selectively screen small molecule compounds for F508del CFTR potentiator activities in the HTS YFP flux assay. In this protocol, the cells are incubated at 27 C for 24 hours with homogeneously boosted dF508-CFTR expression in the cell membrane by the low temperature, washed with PBS, stimulated with forskolin, and read on a 384-well HTS plate reader, such as the Hamamatsu FDDD-6000.
as §1, with “dF508del-CFTR potentiators accelerate” for “dF508-CFTR corrector accelerates”, “increasing” for “increasing the number of”, “activities” for “molecules”
Fisher Rat Thyroid (FRT) cells stably expressing both human ΔF508-CFTR and a halide-sensitive yellow fluorescent protein (YFP-H148Q/I152L 25, 22) (Galietta et al., Am. J. Physiol Cell Physiol 281(5), C1734, 2001) were cultured on plastic surface in Coon's modified Ham's F12 medium supplemented with FBS 10%, L-glutamine 2 mM, penicillin 100 U/mL, and streptomycin 100 μg/mL. […]

T1 sequence (P13569 with tags, fused parts or gaps DEL508-508): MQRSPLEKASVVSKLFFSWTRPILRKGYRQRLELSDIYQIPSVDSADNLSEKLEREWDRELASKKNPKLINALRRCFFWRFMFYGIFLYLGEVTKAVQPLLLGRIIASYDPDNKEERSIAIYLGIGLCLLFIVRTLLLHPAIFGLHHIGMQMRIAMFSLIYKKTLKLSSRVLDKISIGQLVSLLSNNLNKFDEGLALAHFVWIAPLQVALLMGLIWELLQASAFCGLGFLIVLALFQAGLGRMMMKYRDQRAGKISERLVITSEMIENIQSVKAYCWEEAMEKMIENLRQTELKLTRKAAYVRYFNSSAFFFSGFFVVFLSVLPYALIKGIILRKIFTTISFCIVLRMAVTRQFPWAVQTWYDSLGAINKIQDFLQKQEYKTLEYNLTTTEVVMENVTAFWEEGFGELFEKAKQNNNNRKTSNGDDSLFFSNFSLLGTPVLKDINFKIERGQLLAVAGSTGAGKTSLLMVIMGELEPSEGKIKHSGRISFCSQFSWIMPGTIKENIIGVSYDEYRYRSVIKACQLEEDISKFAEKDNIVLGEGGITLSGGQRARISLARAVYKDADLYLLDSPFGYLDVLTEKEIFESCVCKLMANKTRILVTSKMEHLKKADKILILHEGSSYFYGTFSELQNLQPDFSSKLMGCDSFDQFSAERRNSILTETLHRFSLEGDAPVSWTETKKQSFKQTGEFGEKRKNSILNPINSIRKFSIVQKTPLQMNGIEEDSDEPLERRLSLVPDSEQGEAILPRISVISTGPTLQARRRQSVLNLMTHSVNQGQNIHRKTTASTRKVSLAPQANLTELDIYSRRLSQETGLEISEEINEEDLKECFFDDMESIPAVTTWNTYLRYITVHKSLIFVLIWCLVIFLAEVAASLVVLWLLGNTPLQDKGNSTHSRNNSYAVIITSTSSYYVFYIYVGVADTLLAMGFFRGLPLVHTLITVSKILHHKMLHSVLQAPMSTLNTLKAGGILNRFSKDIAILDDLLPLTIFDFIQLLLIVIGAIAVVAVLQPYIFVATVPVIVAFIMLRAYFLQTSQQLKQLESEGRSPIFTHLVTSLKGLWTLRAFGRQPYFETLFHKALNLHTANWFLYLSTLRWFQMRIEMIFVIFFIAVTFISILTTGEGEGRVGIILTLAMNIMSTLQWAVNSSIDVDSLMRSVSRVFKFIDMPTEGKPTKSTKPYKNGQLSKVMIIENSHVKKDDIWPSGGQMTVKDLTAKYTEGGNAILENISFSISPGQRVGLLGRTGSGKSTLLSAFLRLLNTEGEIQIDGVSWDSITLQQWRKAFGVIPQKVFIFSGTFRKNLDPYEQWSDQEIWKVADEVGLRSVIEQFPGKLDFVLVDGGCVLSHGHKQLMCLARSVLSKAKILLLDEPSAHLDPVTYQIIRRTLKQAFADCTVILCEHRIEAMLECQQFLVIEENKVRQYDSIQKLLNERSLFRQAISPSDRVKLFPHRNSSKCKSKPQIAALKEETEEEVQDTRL

Compound	EC50
CCc1ccc(N(CC)C(=O)Cn2nc(Cc3cccnc3)c3cc(OC)ccc3c2=O)cc1 [Example 36, N-ethyl-N-(4-ethylphenyl)-2-(6-methoxy-1-oxo-4-(pyridin-3-ylmethyl)phthalazin-2(1H)-yl)acetamide]	< 10 µM
CCc1ccc(N(CC)C(=O)Cn2nc(Cc3cccnc3)c3cccc(F)c3c2=O)cc1 [Example 37, N-ethyl-N-(4-ethylphenyl)-2-(8-fluoro-1-oxo-4-(pyridin-3-ylmethyl)phthalazin-2(1H)-yl)acetamide]	< 10 µM
CCc1ccc(N(CC)C(=O)Cn2nc(Cc3cccnc3)c3cc(Cl)c(Cl)cc3c2=O)cc1 [Example 38, 2-(6,7-dichloro-1-oxo-4-(pyridin-3-ylmethyl)phthalazin-2(1H)-yl)-N-ethyl-N-(4-ethylphenyl)acetamide]	> 20 µM
CCc1ccc(N(CC)C(=O)Cn2nc(Cc3cccnc3)c3ccc(Cl)cc3c2=O)cc1 [Example 39, 2-(7-chloro-1-oxo-4-(pyridin-3-ylmethyl)phthalazin-2(1H)-yl)-N-ethyl-N-(4-ethylphenyl)acetamide]	< 10 µM
CCc1ccc(N(CC)C(=O)Cn2nc(Cc3cccnc3)c3cc(Cl)ccc3c2=O)cc1 [Example 40, 2-(6-chloro-1-oxo-4-(pyridin-3-ylmethyl)phthalazin-2(1H)-yl)-N-ethyl-N-(4-ethylphenyl)acetamide]	< 10 µM
CCc1ccc(N(CC)C(=O)Cn2nc(Cc3cccnc3)c3ccncc3c2=O)cc1 [Example 41, N-ethyl-N-(4-ethylphenyl)-2-(4-oxo-1-(pyridin-3-ylmethyl)pyrido[3,4-d]pyridazin-3(4H)-yl)acetamide]	> 20 µM
CCc1ccc(N(CC)C(=O)Cn2nc(Cc3cccnc3)c3cnccc3c2=O)cc1 [Example 42, N-ethyl-N-(4-ethylphenyl)-2-(1-oxo-4-(pyridin-3-ylmethyl)pyrido[3,4-d]pyridazin-2(1H)-yl)acetamide]	> 20 µM
CCc1ccc(N(CC)C(=O)Cn2nc(Cc3cccnc3)c3ncccc3c2=O)cc1 [Example 43, N-ethyl-N-(4-ethylphenyl)-2-(5-oxo-8-(pyridin-3-ylmethyl)pyrido[2,3-d]pyridazin-6(5H)-yl)acetamide]	10 to 20 µM
CCN(C(=O)Cn1nc(Cc2cccnc2)c2cc(OC)c(OC)cc2c1=O)c1ccc2c(c1)OC(F)(F)O2 [Example 44]	< 10 µM
CCN(C(=O)Cn1nc(Cc2cccnc2)c2ccc(C)cc2c1=O)c1ccc2c(c1)OC(F)(F)O2 [Example 45, N-(2,2-difluorobenzo[d][1,3]dioxol-5-yl)-N-ethyl-2-(7-methyl-1-oxo-4-(pyridin-3-ylmethyl)phthalazin-2(1H)-yl)acetamide]	< 10 µM
CCN(C(=O)Cn1nc(Cc2cccnc2)c2cc(C)ccc2c1=O)c1ccc2c(c1)OC(F)(F)O2 [Example 46, N-(2,2-difluorobenzo[d][1,3]dioxol-5-yl)-N-ethyl-2-(6-methyl-1-oxo-4-(pyridin-3-ylmethyl)phthalazin-2(1H)-yl)acetamide]	< 10 µM

Now from value to compound:

EC50	Compound
< 10 µM	CCN(C(=O)Cn1nc(Cc2cccnc2)c2cccc(C)c2c1=O)c1ccc2c(c1)OC(F)(F)O2 [Example 47, N-(2,2-difluorobenzo[d][1,3]dioxol-5-yl)-N-ethyl-2-(8-methyl-1-oxo-4-(pyridin-3-ylmethyl)phthalazin-2(1H)-yl)acetamide]
< 10 µM	CCN(C(=O)Cn1nc(Cc2cccnc2)c2c(C)cccc2c1=O)c1ccc2c(c1)OC(F)(F)O2 [Example 48, N-(2,2-difluorobenzo[d][1,3]dioxol-5-yl)-N-ethyl-2-(5-methyl-1-oxo-4-(pyridin-3-ylmethyl)phthalazin-2(1H)-yl)acetamide]
< 10 µM	CCN(C(=O)Cn1nc(Cc2cccnc2)c2cc(C(C)(C)C)ccc2c1=O)c1ccc2c(c1)OC(F)(F)O2 [Example 49, 2-(6-(tert-butyl)-1-oxo-4-(pyridin-3-ylmethyl)phthalazin-2(1H)-yl)-N-(2,2-difluorobenzo[d][1,3]dioxol-5-yl)-N-ethylacetamide]
< 10 µM	CCN(C(=O)Cn1nc(Cc2cccnc2)c2ccc(C(C)(C)C)cc2c1=O)c1ccc2c(c1)OC(F)(F)O2 [Example 50, 2-(7-(tert-butyl)-1-oxo-4-(pyridin-3-ylmethyl)phthalazin-2(1H)-yl)-N-(2,2-difluorobenzo[d][1,3]dioxol-5-yl)-N-ethylacetamide]
< 10 µM	CCN(C(=O)Cn1nc(Cc2cccnc2)c2cc(OC)ccc2c1=O)c1ccc2c(c1)OC(F)(F)O2 [Example 51, N-(2,2-difluorobenzo[d][1,3]dioxol-5-yl)-N-ethyl-2-(6-methoxy-1-oxo-4-(pyridin-3-ylmethyl)phthalazin-2(1H)-yl)acetamide]
< 10 µM	CCN(C(=O)Cn1nc(Cc2cccnc2)c2ccc(OC)cc2c1=O)c1ccc2c(c1)OC(F)(F)O2 [Example 52, N-(2,2-difluorobenzo[d][1,3]dioxol-5-yl)-N-ethyl-2-(7-methoxy-1-oxo-4-(pyridin-3-ylmethyl)phthalazin-2(1H)-yl)acetamide]
< 10 µM	CCN(C(=O)Cn1nc(Cc2cccnc2)c2cc(Cl)ccc2c1=O)c1ccc2c(c1)OC(F)(F)O2 [Example 53, 2-(6-chloro-1-oxo-4-(pyridin-3-ylmethyl)phthalazin-2(1H)-yl)-N-(2,2-difluorobenzo[d][1,3]dioxol-5-yl)-N-ethylacetamide]
< 10 µM	CCN(C(=O)Cn1nc(Cc2cccnc2)c2ccc(Cl)cc2c1=O)c1ccc2c(c1)OC(F)(F)O2 [Example 54, 2-(7-chloro-1-oxo-4-(pyridin-3-ylmethyl)phthalazin-2(1H)-yl)-N-(2,2-difluorobenzo[d][1,3]dioxol-5-yl)-N-ethylacetamide]
< 10 µM	CCN(C(=O)Cn1nc(Cc2cccnc2)c2cccc(OC)c2c1=O)c1ccc2c(c1)OC(F)(F)O2 [Example 55, N-(2,2-difluorobenzo[d][1,3]dioxol-5-yl)-N-ethyl-2-(8-methoxy-1-oxo-4-(pyridin-3-ylmethyl)phthalazin-2(1H)-yl)acetamide]
< 10 µM	CCN(C(=O)Cn1nc(Cc2cccnc2)c2c(OC)cccc2c1=O)c1ccc2c(c1)OC(F)(F)O2 [Example 56, N-(2,2-difluorobenzo[d][1,3]dioxol-5-yl)-N-ethyl-2-(5-methoxy-1-oxo-4-(pyridin-3-ylmethyl)phthalazin-2(1H)-yl)acetamide]
< 10 µM	CCOc1cccc2c(Cc3cccnc3)nn(CC(=O)N(CC)c3ccc4c(c3)OC(F)(F)O4)c(=O)c12 [Example 57, N-(2,2-difluorobenzo[d][1,3]dioxol-5-yl)-N-ethyl-2-(8-ethoxy-1-oxo-4-(pyridin-3-ylmethyl)phthalazin-2(1H)-yl)acetamide]
10 to 20 µM	CCOc1cccc2c(=O)n(CC(=O)N(CC)c3ccc4c(c3)OC(F)(F)O4)nc(Cc3cccnc3)c12 [Example 58, N-(2,2-difluorobenzo[d][1,3]dioxol-5-yl)-N-ethyl-2-(5-ethoxy-1-oxo-4-(pyridin-3-ylmethyl)phthalazin-2(1H)-yl)acetamide]
< 10 µM	CCN(C(=O)Cn1nc(Cc2cccnc2)c2cccc(OC3CCCCC3)c2c1=O)c1ccc2c(c1)OC(F)(F)O2 [Example 59, 2-(8-(cyclohexyloxy)-1-oxo-4-(pyridin-3-ylmethyl)phthalazin-2(1H)-yl)-N-(2,2-difluorobenzo[d][1,3]dioxol-5-yl)-N-ethylacetamide]
